From patent US20060135773A1, “Trisubstituted nitrogen modulators of tyrosine phosphatases” (priority 2004, published 2006)

Biological target: T1, PTP-1B (Homo sapiens, UniProt P18031)
T1 construct: PTP-1B (purified, 1 mg/mL) as a 1:250 dilution
T1 sequence (P18031 1-321 limits assumed): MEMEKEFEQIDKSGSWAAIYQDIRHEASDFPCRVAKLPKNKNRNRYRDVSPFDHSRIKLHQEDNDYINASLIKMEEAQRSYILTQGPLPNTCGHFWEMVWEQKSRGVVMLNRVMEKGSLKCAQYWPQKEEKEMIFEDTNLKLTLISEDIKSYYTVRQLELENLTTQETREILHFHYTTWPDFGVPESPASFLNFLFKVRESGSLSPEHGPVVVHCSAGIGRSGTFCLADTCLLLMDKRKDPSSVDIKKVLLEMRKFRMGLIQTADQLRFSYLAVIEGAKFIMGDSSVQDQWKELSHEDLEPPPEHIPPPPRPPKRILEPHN
Test: pNPP tyrosine phosphatase inhibition assay, PTP-1B
Assay type: biochemical
Conditions: pNPP assay, PTP-1B; read-out: Activity Class (IC50 ranges)
Procedure, shortened: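 Test compounds were screened at two final levels, 31.3 and 10 µM, against 4 µg/mL purified PTP-1B. The substrate was 10 mM p-nitrophenyl phosphate, with incubation for 10 min at 30°C before a K2CO3 quench. Activity was taken from A405.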

Row | Compound | IC50 [nM]
1 | O=P(O)(O)C(F)(F)c1ccc(CN(Cc2ccc(C(F)(F)P(=O)(O)O)cc2)S(=O)(=O)c2cccc(Oc3ccccc3)c2)cc1 [Compound 72, [(4-{[[4-(Difluoro-phosphono-methyl)-benzyl]-(3-phenoxy-benzenesulfonyl)-amino]-methyl}-phenyl)-difluoro-methyl]-phosphonic acid] | 250 to 499
2 | O=P(O)(O)C(F)(F)c1ccc(CN(Cc2ccc(Cl)c(Cl)c2)S(=O)(=O)c2ccccc2OC(F)(F)F)cc1Br [Compound 98, [(2-Bromo-4-{[(3,4-dichloro-benzyl)-(2-trifluoromethoxy-benzenesulfonyl)-amino]-methyl}-phenyl)-difluoro-methyl]-phosphonic acid] | 250 to 499
3 | COc1ccccc1S(=O)(=O)N(Cc1ccc(C#N)cc1)Cc1ccc(NC(=O)C(=O)O)cc1 [Compound 129, N-(4-(N-oxalylamino]benzyl)-N-(4-cyanobenzyl)-(2-methoxy)benzenesulfonamide] | > 25000
4 | N#Cc1ccccc1S(=O)(=O)N(Cc1ccc(Cl)c(Cl)c1)Cc1ccc(C(F)(F)P(=O)(O)O)c(Br)c1 [Compound 97, [(2-Bromo-4-{[(3,4-dichloro-benzyl)-(2-cyanobenzenesulfonyl)-amino]-methyl}-phenyl)-difluoro-methyl]-phosphonic acid] | 250 to 499
5 | {[4-(difluorophosphonomethyl)-3-chlorophenyl]methyl}[(2 methoxyphenyl)sulfonyl]{[2-(3-methylthiophenyl)phenyl]methyl}amine [Compound 206] | < 99
6 | O=P(O)(O)C(F)(F)c1ccc(CN(Cc2ccc(C(F)(F)P(=O)(O)O)cc2)C2CCCC2)cc1 [Compound 63, {[4-({Cyclopentyl-[4-(difluoro-phosphono-methyl)-benzyl]-amino}-methyl)-phenyl]-difluoro-methyl}-phosphonic acid] | > 25000
7 | (4-{[(4-Cyano-benzyl)-(2-methoxy-benzenesulfonyl)-amino]-methyl}-phenyl)-difluoro-acetic acid [Compound 130] | > 25000
8 | O=C(O)c1ccc(CN(Cc2ccc(Cl)c(Cl)c2)S(=O)(=O)c2ccccc2Cl)cc1Br [Compound 94, 2-Bromo-4-{[(2-chloro-benzenesulfonyl)-(3,4-dichloro-benzyl)-amino]-methyl}-benzoic acid] | > 25000
9 | 5-{4-[({[4-(difluorophosphonomethyl)-3-chlorophenyl]methyl}[(2-methoxyphenyl)sulfonyl]amino)methyl]phenyl}-2-methoxybenzoic acid [Compound 207] | < 99
10 | 5-{4-[({[4-(difluorophosphonomethyl)phenyl]methyl}[(2-methoxyphenyl)sulfonyl]amino)methyl]phenyl}-2-hydroxybenzoic acid [Compound 210] | 250 to 499
11 | O=P(O)(O)C(F)(F)c1ccc(CN(Cc2ccccc2)Cc2ccc(C(F)(F)P(=O)(O)O)cc2)cc1 [Compound 65, {[4-({Benzyl-[4-(difluoro-phosphono-methyl)-benzyl]-amino}-methyl)-phenyl]-difluoro-methyl}-phosphonic acid] | > 25000
12 | {[4-(difluorophosphonomethyl)-3-chlorophenyl]methyl}[(2-ethoxyphenyl)methyl][(2-methoxyphenyl)sulfonyl]amine [Compound 212] | 250 to 499
13 | COc1ccc(S(=O)(=O)N(Cc2ccc(C(F)(F)P(=O)(O)O)cc2)Cc2ccc(C(F)(F)P(=O)(O)O)cc2)cc1 [Compound 89, [(4-{[[4-(Difluoro-phosphono-methyl)-benzyl]-(4-methoxy-benzenesulfonyl)-amino]-methyl}-phenyl)-difluoro-methyl]-phosphonic acid] | 250 to 499
14 | {[4-(difluorophosphonomethyl)-3-chlorophenyl]methyl}(cyclohexylmethyl)[(2-methoxyphenyl)sulfonyl]amine [Compound 203] | 250 to 499

Second part, the compound after the results:

Row | IC50 [nM] | Compound
15 | > 25000 | COc1ccccc1S(=O)(=O)N(Cc1ccc(C(=O)C(=O)O)cc1)Cc1ccc(S(C)(=O)=O)cc1 [Compound 125, (4-{[(4-Methanesulfonyl-benzyl)-(2-methoxy-benzenesulfonyl)-amino]-methyl}-phenyl)-oxo-acetic acid]
16 | 100 to 249 | COc1ccccc1S(=O)(=O)N(Cc1ccc(C(F)(F)P(=O)(O)O)c(Cl)c1)Cc1ccccc1-c1cccc(O)c1 [Compound 184, [(2-Chloro-4-{[(3′-hydroxy-biphenyl-2-ylmethyl)-(2-methoxy-benzenesulfonyl)-amino]-methyl}-phenyl)-difluoro-methyl]-phosphonic acid]
17 | > 25000 | COc1ccccc1S(=O)(=O)N(Cc1ccc(-c2cccc(C#N)c2)cc1)Cc1ccc(C(F)(F)P(=O)(O)OCOC(=O)C(C)(C)C)c(Cl)c1 [Compound 227, 2,2-Dimethyl-propionic acid [(2-chloro-4-{[(3′-cyano-biphenyl-4-ylmethyl)-(2-methoxy-benzenesulfonyl)-amino]-methyl}-phenyl)-difluoro-methyl]-hydroxy-phosphinoyloxymethyl ester]
18 | 250 to 499 | COc1ccccc1S(=O)(=O)N(Cc1ccc(OCc2ccccc2)cc1)Cc1ccc(C(F)(F)P(=O)(O)O)c(Cl)c1 [Compound 172, [(4-{[(4-Benzyloxy-benzyl)-(2-methoxy-benzenesulfonyl)-amino]-methyl}-2-chloro-phenyl)-difluoro-methyl]-phosphonic acid]
19 | < 99 | COc1ccccc1S(=O)(=O)N(Cc1ccc(-c2ccc(O)c(C(=O)O)c2)cc1)Cc1ccc(C(F)(F)P(=O)(O)O)c(Cl)c1 [Compound 156, 4′-{[[3-Chloro-4-(difluoro-phosphono-methyl)-benzyl]-(2-methoxy-benzenesulfonyl)-amino]-methyl}-4-hydroxy-biphenyl-3-carboxylic acid]
20 | < 99 | COc1ccccc1S(=O)(=O)N(Cc1ccc(-c2ccc(C(=O)O)c(F)c2)cc1)Cc1ccc(C(F)(F)P(=O)(O)O)c(Cl)c1 [Compound 177, 4′-{[[3-Chloro-4-(difluoro-phosphono-methyl)-benzyl]-(2-methoxy-benzenesulfonyl)-amino]-methyl}-3-fluoro-biphenyl-4-carboxylic acid]
21 | 2500 to 25000 | COc1ccccc1S(=O)(=O)N(Cc1ccc(C(F)(F)P(=O)(O)O)c(Cl)c1)C(Cc1ccccc1)c1ccccc1 (stereo not drawn) [Compound 171, [(2-Chloro-4-{[(1,2-diphenyl-ethyl)-(2-methoxy-benzenesulfonyl)-amino]-methyl}-phenyl)-difluoro-methyl]-phosphonic acid]
22 | 100 to 249 | N#Cc1ccc(CN(Cc2ccc(C(F)(F)P(=O)(O)O)c(Br)c2)S(=O)(=O)c2ccccc2Cl)cc1 [Compound 103, [(2-Bromo-4-{[(4-cyano-benzyl)-(2-chlorobenzenesulfonyl)-amino]-methyl}-phenyl)-difluoro-methyl]-phosphonic acid]
23 | 250 to 499 | COc1ccccc1S(=O)(=O)N(Cc1ccc(C(F)(F)P(=O)(O)O)c(Cl)c1)Cc1ccccc1C [Compound 167, [(2-Chloro-4-{[(2-methoxy-benzenesulfonyl)-(2-methyl-benzyl)-amino]-methyl}-phenyl)-difluoro-methyl]-phosphonic acid]
24 | 100 to 249 | COc1ccccc1S(=O)(=O)N(Cc1ccc(-c2cccc(S(C)(=O)=O)c2)cc1)Cc1ccc(C(F)(F)P(=O)(O)O)c(Cl)c1 [Compound 148, [(2-Chloro-4-{[(3′-methanesulfonyl-biphenyl-4-ylmethyl)-(2-methoxy-benzenesulfonyl)-amino]-methyl}-phenyl)-difluoro-methyl]-phosphonic acid]
25 | > 25000 | COc1ccccc1S(=O)(=O)N(Cc1ccc(C#N)cc1)Cc1ccc(NS(=O)(=O)C(F)(F)F)c(C(=O)O)c1 [Compound 139, 5-{[(4-Cyano-benzyl)-(2-methoxy-benzenesulfonyl)-amino]-methyl}-2-trifluoromethanesulfonylamino-benzoic acid]
26 | 250 to 499 | COC(=O)c1ccc(CN(Cc2ccc(C(F)(F)P(=O)(O)O)c(Cl)c2)S(=O)(=O)c2ccccc2OC)cc1 [Compound 231, 4-{[[3-Chloro-4-(difluoro-phosphono-methyl)-benzyl]-(2-methoxy-benzenesulfonyl)-amino]-methyl}-benzoic acid methyl ester]
27 | 250 to 499 | CCOC(=O)[C@H](C)NP(=O)(O)C(F)(F)c1ccc(CN(Cc2ccc(-c3cccc(C#N)c3)cc2)S(=O)(=O)c2ccccc2OC)cc1Cl [Compound 219, [S]-N-[(2-Chloro-4-{[(3′-cyano-biphenyl-4-ylmethyl)-(2-methoxy-benzenesulfonyl)-amino]-methyl}-phenyl)-difluoro-methyl]-phosphonyl-(ethyl alaninate)]
28 | > 25000 | COc1ccccc1S(=O)(=O)N(Cc1ccc(C#N)cc1)Cc1ccc(N(S(=O)(=O)C(F)(F)F)S(=O)(=O)C(F)(F)F)cc1 [Compound 112, N-(4-[bis(N-trifluoro-methanesulfonyl)amino]benzyl)-N-(4-cyanobenzyl)-(2-methoxy)benzenesulfonamide]
29 | < 99 | COc1ccccc1S(=O)(=O)N(Cc1ccc(-c2ccc(Cl)c(C(=O)NO)c2)cc1)Cc1ccc(C(F)(F)P(=O)(O)O)c(Cl)c1 [Compound 181, [(2-Chloro-4-{[(4′-chloro-3′-hydroxycarbamoyl-biphenyl-4-ylmethyl)-(2-methoxy-benzenesulfonyl)-amino]-methyl}-phenyl)-difluoro-methyl]-phosphonic acid]
30 | 250 to 499 | NC(=O)c1cccc(S(=O)(=O)N(Cc2ccc(C(F)(F)P(=O)(O)O)c(Cl)c2)Cc2ccccc2-c2ccccc2)c1 [Compound 214, [(4-{[Biphenyl-2-ylmethyl-(3-carbamoyl-benzenesulfonyl)-amino]-methyl}-2-chloro-phenyl)-difluoro-methyl]-phosphonic acid]
